{
  "source": "patent US11767310B2",
  "about": "“Nicotinamide RIPK1 inhibitors” (AbbVie Inc., priority 2021, dated 2023)",
  "assay_in_all_cases": "Kinase binding screen",
  "conditions_in_all_cases": "read-out: Percent Control at 100 nM Compound Concentration",
  "key": {"[1]": {"molecular_target": "ABL1(T315I)-nonphosphorylated (Homo sapiens (Human), UniProt P00519, T315I)"}, "[2]": {"molecular_target": "ABL1(Y253F)-pho sphorylated (Homo sapiens (Human), UniProt P00519, Y253F)"}, "BMPR1B": {"molecular_target": "BMPR1B (Homo sapiens (Human), UniProt O00238)", "sequence (O00238 14-502)": "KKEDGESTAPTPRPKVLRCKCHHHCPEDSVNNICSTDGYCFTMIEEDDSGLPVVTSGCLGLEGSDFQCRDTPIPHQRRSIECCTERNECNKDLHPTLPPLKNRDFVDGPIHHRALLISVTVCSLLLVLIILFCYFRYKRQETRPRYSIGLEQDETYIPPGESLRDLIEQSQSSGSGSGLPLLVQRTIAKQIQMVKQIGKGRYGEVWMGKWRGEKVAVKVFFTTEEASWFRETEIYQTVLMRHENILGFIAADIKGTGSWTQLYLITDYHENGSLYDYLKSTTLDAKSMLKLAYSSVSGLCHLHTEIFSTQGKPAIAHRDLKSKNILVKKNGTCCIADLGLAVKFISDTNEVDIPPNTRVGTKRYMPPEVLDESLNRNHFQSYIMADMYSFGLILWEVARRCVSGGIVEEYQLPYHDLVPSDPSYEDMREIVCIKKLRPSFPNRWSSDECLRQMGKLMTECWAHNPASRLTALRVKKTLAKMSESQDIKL"}, "BMPR2": {"molecular_target": "BMPR2 (Homo sapiens (Human), UniProt Q13873)"}, "CDK11": {"molecular_target": "CDK11 (Homo sapiens (Human), UniProt Q9BWU1)"}, "CDKL3": {"molecular_target": "CDKL3 (Homo sapiens (Human), UniProt Q8IVW4)"}, "DRAK1": {"molecular_target": "DRAK1 (Homo sapiens (Human), UniProt Q9UEE5)"}, "ERK8": {"molecular_target": "ERK8 (Homo sapiens (Human), UniProt Q8TD08)"}, "FGFR3(G697C)": {"molecular_target": "FGFR3(G697C) (Homo sapiens (Human), UniProt P22607, G697C)"}, "FLT3(N841I)": {"molecular_target": "FLT3(N841I) (Homo sapiens (Human), UniProt P36888, N841I)"}, "GAK": {"molecular_target": "GAK (Homo sapiens (Human), UniProt O14976)", "sequence (O14976 whole entry)": "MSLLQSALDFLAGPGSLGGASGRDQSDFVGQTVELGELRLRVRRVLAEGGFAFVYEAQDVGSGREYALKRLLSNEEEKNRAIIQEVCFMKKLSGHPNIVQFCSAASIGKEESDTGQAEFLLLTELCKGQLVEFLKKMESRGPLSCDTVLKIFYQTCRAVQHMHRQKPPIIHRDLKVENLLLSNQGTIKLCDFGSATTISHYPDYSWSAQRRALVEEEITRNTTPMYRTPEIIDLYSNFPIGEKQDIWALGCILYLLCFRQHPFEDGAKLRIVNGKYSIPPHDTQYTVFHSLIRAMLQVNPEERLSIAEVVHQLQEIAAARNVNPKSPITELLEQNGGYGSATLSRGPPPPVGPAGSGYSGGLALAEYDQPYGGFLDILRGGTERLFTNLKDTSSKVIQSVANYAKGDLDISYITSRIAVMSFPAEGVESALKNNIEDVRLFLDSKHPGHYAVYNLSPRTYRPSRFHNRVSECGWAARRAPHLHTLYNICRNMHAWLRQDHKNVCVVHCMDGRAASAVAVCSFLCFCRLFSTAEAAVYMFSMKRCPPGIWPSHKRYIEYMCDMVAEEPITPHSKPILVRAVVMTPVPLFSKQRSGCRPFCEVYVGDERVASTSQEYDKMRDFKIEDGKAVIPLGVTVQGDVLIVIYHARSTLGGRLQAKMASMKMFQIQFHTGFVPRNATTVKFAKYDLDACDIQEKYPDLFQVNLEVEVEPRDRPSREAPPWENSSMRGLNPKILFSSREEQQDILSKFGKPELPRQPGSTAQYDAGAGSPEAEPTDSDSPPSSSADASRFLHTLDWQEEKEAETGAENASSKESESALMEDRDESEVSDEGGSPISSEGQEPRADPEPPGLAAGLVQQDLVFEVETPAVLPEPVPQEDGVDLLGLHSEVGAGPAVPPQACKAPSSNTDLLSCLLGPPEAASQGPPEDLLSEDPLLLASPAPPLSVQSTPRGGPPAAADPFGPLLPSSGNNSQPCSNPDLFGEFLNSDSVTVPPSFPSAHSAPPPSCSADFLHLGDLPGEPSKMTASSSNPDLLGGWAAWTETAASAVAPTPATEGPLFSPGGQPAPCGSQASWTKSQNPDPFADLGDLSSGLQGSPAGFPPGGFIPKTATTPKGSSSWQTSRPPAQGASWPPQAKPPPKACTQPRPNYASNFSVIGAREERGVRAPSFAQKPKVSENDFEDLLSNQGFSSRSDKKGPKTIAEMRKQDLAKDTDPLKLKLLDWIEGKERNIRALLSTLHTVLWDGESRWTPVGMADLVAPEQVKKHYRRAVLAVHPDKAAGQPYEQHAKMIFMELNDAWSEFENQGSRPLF"}, "HIPK3": {"molecular_target": "HIPK3 (Homo sapiens (Human), UniProt Q9H422)"}, "IKK-alpha": {"molecular_target": "IKK-alpha (Homo sapiens (Human), UniProt O15111)"}, "[3]": {"molecular_target": "JAK3(JH1domain-catalytic) (Homo sapiens (Human), UniProt P52333)"}, "KIT(L576P)": {"molecular_target": "KIT(L576P) (Homo sapiens (Human), UniProt P10721, L576P)"}, "LCK": {"molecular_target": "LCK (Homo sapiens (Human), UniProt P06239)", "sequence (P06239 whole entry)": "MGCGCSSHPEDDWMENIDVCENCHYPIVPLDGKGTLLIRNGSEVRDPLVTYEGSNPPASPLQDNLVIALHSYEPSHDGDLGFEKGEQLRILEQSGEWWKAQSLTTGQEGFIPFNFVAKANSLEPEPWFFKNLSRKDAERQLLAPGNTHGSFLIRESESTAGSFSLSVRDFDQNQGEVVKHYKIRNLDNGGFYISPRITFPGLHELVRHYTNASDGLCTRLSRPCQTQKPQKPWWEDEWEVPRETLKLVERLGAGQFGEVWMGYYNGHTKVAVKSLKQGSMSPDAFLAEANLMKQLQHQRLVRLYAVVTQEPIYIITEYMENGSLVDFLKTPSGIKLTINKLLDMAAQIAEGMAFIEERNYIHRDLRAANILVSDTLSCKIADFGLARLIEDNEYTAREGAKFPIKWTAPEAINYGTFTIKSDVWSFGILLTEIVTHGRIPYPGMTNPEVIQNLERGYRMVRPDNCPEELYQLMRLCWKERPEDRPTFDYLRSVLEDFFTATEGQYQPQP"}, "MERTK": {"molecular_target": "MERTK (Homo sapiens (Human), UniProt Q12866)", "sequence (Q12866 21-999)": "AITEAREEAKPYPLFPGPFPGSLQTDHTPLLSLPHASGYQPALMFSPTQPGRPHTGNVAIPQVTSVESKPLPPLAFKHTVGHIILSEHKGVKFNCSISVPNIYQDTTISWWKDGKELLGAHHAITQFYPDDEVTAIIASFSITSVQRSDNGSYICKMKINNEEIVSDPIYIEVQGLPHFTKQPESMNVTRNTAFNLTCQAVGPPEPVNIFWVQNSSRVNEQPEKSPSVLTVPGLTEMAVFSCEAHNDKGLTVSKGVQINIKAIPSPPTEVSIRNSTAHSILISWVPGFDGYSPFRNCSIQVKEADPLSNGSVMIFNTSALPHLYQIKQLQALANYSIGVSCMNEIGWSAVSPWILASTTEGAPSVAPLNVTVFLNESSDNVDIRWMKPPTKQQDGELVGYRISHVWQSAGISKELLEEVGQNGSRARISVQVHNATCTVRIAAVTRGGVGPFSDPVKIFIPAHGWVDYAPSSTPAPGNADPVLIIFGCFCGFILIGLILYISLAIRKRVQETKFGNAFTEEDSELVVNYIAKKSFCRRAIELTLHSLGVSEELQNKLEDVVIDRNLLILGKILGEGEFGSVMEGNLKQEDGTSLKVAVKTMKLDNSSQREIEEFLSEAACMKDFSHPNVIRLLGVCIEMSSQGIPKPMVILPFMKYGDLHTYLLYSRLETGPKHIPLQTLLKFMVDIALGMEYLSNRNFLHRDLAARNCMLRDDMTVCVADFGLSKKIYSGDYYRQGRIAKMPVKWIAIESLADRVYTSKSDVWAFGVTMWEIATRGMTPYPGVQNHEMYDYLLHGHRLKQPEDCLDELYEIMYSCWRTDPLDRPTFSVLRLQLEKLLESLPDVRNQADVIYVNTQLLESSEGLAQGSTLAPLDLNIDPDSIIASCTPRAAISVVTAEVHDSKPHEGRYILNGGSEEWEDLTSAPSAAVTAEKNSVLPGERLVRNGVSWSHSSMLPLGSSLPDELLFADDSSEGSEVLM"}, "PIP5K1C": {"molecular_target": "PIP5K1C (Homo sapiens (Human), UniProt O60331)"}, "PLK2": {"molecular_target": "PLK2 (Homo sapiens (Human), UniProt Q9NYY3)"}, "PLK4": {"molecular_target": "PLK4 (Homo sapiens (Human), UniProt O00444)"}, "PRKCI": {"molecular_target": "PRKCI (Homo sapiens (Human), UniProt P41743)"}, "[4]": {"molecular_target": "RSK1(Kin.Dom.1-N-terminal) (Homo sapiens (Human), UniProt Q15418)"}, "[5]": {"molecular_target": "RSK3(Kin.Dom.1-N-terminal) (Homo sapiens (Human), UniProt Q15349)"}, "SgK110": {"molecular_target": "SgK110 (Homo sapiens (Human), UniProt P0C264)"}, "TBK1": {"molecular_target": "TBK1 (Homo sapiens (Human), UniProt Q9UHD2)"}, "TIE2": {"molecular_target": "TIE2 (Homo sapiens (Human), UniProt Q02763)", "sequence (Q02763 23-1124)": "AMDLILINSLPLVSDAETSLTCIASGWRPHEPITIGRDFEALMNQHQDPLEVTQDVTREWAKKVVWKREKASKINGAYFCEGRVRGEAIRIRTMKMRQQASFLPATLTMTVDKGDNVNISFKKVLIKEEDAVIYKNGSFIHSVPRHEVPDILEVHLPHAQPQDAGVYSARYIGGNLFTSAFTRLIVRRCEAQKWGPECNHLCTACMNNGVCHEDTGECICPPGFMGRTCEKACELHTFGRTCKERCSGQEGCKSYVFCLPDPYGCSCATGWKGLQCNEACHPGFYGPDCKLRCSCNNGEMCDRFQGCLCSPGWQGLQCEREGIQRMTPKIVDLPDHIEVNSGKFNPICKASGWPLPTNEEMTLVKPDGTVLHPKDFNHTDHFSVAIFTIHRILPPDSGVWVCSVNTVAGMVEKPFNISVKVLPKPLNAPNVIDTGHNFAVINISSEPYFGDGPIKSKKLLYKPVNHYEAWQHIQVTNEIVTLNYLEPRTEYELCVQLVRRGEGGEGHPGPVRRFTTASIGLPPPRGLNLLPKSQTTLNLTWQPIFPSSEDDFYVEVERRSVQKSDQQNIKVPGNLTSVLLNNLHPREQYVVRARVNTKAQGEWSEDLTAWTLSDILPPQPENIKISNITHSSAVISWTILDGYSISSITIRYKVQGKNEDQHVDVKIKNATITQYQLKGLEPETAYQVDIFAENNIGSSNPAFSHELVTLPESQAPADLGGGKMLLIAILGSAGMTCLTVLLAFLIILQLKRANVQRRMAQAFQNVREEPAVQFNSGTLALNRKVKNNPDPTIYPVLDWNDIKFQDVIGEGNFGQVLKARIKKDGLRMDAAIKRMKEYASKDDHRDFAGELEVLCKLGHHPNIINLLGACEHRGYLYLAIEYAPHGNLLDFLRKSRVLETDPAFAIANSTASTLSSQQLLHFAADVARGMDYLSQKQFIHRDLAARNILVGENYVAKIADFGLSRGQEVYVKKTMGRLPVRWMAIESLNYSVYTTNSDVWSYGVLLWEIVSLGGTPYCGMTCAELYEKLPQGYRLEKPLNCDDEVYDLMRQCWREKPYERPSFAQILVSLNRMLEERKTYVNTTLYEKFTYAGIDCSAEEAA"}, "TLK2": {"molecular_target": "TLK2 (Homo sapiens (Human), UniProt Q86UE8)"}, "WEE2": {"molecular_target": "WEE2 (Homo sapiens (Human), UniProt P0C1S8)", "sequence (P0C1S8 whole entry)": "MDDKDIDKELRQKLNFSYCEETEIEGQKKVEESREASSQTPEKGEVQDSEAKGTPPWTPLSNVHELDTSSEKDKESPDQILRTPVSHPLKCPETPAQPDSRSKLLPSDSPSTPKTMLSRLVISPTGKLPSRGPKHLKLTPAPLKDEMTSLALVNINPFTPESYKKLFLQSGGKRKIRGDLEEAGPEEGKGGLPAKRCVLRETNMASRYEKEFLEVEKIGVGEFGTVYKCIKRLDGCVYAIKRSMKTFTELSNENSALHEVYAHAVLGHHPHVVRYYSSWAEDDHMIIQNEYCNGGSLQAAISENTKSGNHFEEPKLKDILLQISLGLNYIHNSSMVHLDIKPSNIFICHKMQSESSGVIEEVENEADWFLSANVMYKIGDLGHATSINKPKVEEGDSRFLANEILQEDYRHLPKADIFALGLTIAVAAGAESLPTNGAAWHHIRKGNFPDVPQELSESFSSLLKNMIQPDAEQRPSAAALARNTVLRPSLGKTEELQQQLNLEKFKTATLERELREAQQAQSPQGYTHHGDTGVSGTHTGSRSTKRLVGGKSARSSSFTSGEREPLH"}},
  "note": "Like-named read-outs stand apart in the source and are kept apart here.",
  "data": [
    {"smiles": "CN(C[C@@H](O)Cc1ccccc1)C(=O)c1cncc(C#Cc2cnn(C(F)F)c2)c1", "note": "[Example 2, (S)-5-((1-(difluoromethyl)-1H-pyrazol-4-yl)ethynyl)-N-(2-hydroxy-3-phenylpropyl)-N-methylnicotinamide]", "values": [
      {"measurement": "remaining activity at 0.1 µM", "setting": "[1]; ABL1(T315I)-nonphosphorylated", "result": 100, "unit": "%"},
      {"measurement": "remaining activity at 0.1 µM", "setting": "[2]; ABL1(Y253F)-pho sphorylated", "result": 100, "unit": "%"},
      {"measurement": "remaining activity at 0.1 µM", "setting": "BMPR1B; BMPR1B", "result": 98, "unit": "%"},
      {"measurement": "remaining activity at 0.1 µM", "setting": "BMPR2; BMPR2", "result": 100, "unit": "%"},
      {"measurement": "remaining activity at 0.1 µM", "setting": "CDK11; CDK11", "result": 4.8, "unit": "%"},
      {"measurement": "remaining activity at 0.1 µM", "setting": "CDKL3; CDKL3", "result": 100, "unit": "%"},
      {"measurement": "remaining activity at 0.1 µM", "setting": "DRAK1; DRAK1", "result": 95, "unit": "%"},
      {"measurement": "remaining activity at 0.1 µM", "setting": "ERK8; ERK8", "result": 100, "unit": "%"},
      {"measurement": "remaining activity at 0.1 µM", "setting": "FGFR3(G697C); FGFR3(G697C)", "result": 100, "unit": "%"},
      {"measurement": "remaining activity at 0.1 µM", "setting": "FLT3(N841I); FLT3(N841I)", "result": 99, "unit": "%"},
      {"measurement": "remaining activity at 0.1 µM", "setting": "GAK; GAK", "result": 100, "unit": "%"},
      {"measurement": "remaining activity at 0.1 µM", "setting": "HIPK3; HIPK3", "result": 100, "unit": "%"},
      {"measurement": "remaining activity at 0.1 µM", "setting": "IKK-alpha; IKK-alpha", "result": 100, "unit": "%"},
      {"measurement": "remaining activity at 0.1 µM", "setting": "[3]; JAK3(JH1domain-catalytic)", "result": 100, "unit": "%"},
      {"measurement": "remaining activity at 0.1 µM", "setting": "KIT(L576P); KIT(L576P)", "result": 100, "unit": "%"},
      {"measurement": "remaining activity at 0.1 µM", "setting": "LCK; LCK", "result": 100, "unit": "%"},
      {"measurement": "remaining activity at 0.1 µM", "setting": "MERTK; MERTK", "result": 100, "unit": "%"},
      {"measurement": "remaining activity at 0.1 µM", "setting": "PIP5K1C; PIP5K1C", "result": 100, "unit": "%"},
      {"measurement": "remaining activity at 0.1 µM", "setting": "PLK2; PLK2", "result": 98, "unit": "%"},
      {"measurement": "remaining activity at 0.1 µM", "setting": "PLK4; PLK4", "result": 100, "unit": "%"},
      {"measurement": "remaining activity at 0.1 µM", "setting": "PRKCI; PRKCI", "result": 96, "unit": "%"},
      {"measurement": "remaining activity at 0.1 µM", "setting": "[4]; RSK1(Kin.Dom.1-N-terminal)", "result": 96, "unit": "%"},
      {"measurement": "remaining activity at 0.1 µM", "setting": "[5]; RSK3(Kin.Dom.1-N-terminal)", "result": 97, "unit": "%"},
      {"measurement": "remaining activity at 0.1 µM", "setting": "SgK110; SgK110", "result": 81, "unit": "%"},
      {"measurement": "remaining activity at 0.1 µM", "setting": "TBK1; TBK1", "result": 79, "unit": "%"},
      {"measurement": "remaining activity at 0.1 µM", "setting": "TIE2; TIE2", "result": 100, "unit": "%"},
      {"measurement": "remaining activity at 0.1 µM", "setting": "TLK2; TLK2", "result": 100, "unit": "%"},
      {"measurement": "remaining activity at 0.1 µM", "setting": "WEE2; WEE2", "result": 100, "unit": "%"}
    ]},
    {"smiles": "CN(C[C@H](Cc1ccccc1)OP(=O)(O)O)C(=O)c1cncc(C#Cc2cnn(C(F)F)c2)c1", "note": "[Example 19, (S)-1-(5-((1-(difluoromethyl)-1H-pyrazol-4-yl)ethynyl)-N-methylnicotinamido)-3-phenylpropan-2-yl dihydrogen phosphate]", "values": [
      {"measurement": "remaining activity at 0.1 µM", "setting": "[1]", "result": 97, "unit": "%"},
      {"measurement": "remaining activity at 0.1 µM", "setting": "[2]", "result": 100, "unit": "%"},
      {"measurement": "remaining activity at 0.1 µM", "setting": "BMPR1B", "result": 99, "unit": "%"},
      {"measurement": "remaining activity at 0.1 µM", "setting": "BMPR2", "result": 89, "unit": "%"},
      {"measurement": "remaining activity at 0.1 µM", "setting": "CDK11", "result": 92, "unit": "%"},
      {"measurement": "remaining activity at 0.1 µM", "setting": "CDKL3", "result": 97, "unit": "%"},
      {"measurement": "remaining activity at 0.1 µM", "setting": "DRAK1", "result": 100, "unit": "%"},
      {"measurement": "remaining activity at 0.1 µM", "setting": "ERK8", "result": 100, "unit": "%"},
      {"measurement": "remaining activity at 0.1 µM", "setting": "FGFR3(G697C)", "result": 100, "unit": "%"},
      {"measurement": "remaining activity at 0.1 µM", "setting": "FLT3(N841I)", "result": 96, "unit": "%"},
      {"measurement": "remaining activity at 0.1 µM", "setting": "GAK", "result": 100, "unit": "%"},
      {"measurement": "remaining activity at 0.1 µM", "setting": "HIPK3", "result": 88, "unit": "%"},
      {"measurement": "remaining activity at 0.1 µM", "setting": "IKK-alpha", "result": 99, "unit": "%"},
      {"measurement": "remaining activity at 0.1 µM", "setting": "[3]", "result": 100, "unit": "%"},
      {"measurement": "remaining activity at 0.1 µM", "setting": "KIT(L576P)", "result": 98, "unit": "%"},
      {"measurement": "remaining activity at 0.1 µM", "setting": "LCK", "result": 95, "unit": "%"},
      {"measurement": "remaining activity at 0.1 µM", "setting": "MERTK", "result": 100, "unit": "%"},
      {"measurement": "remaining activity at 0.1 µM", "setting": "PIP5K1C", "result": 85, "unit": "%"},
      {"measurement": "remaining activity at 0.1 µM", "setting": "PLK2", "result": 91, "unit": "%"},
      {"measurement": "remaining activity at 0.1 µM", "setting": "PLK4", "result": 100, "unit": "%"},
      {"measurement": "remaining activity at 0.1 µM", "setting": "PRKCI", "result": 92, "unit": "%"},
      {"measurement": "remaining activity at 0.1 µM", "setting": "[4]", "result": 100, "unit": "%"},
      {"measurement": "remaining activity at 0.1 µM", "setting": "[5]", "result": 100, "unit": "%"},
      {"measurement": "remaining activity at 0.1 µM", "setting": "SgK110", "result": 77, "unit": "%"},
      {"measurement": "remaining activity at 0.1 µM", "setting": "TBK1", "result": 84, "unit": "%"},
      {"measurement": "remaining activity at 0.1 µM", "setting": "TIE2", "result": 88, "unit": "%"},
      {"measurement": "remaining activity at 0.1 µM", "setting": "TLK2", "result": 100, "unit": "%"},
      {"measurement": "remaining activity at 0.1 µM", "setting": "WEE2", "result": 100, "unit": "%"}
    ]}
  ]
}
